Conditions: Liquid, transient hot wire

Cc1ccccc1 [toluene]
Conditions | thermal conductivity [W/m/K]
317.39 K, 5130 kPa | 0.1266
317.42 K, 1050 kPa | 0.1251
317.42 K, 10550 kPa | 0.1277
317.46 K, 15330 kPa | 0.1292
317.52 K, 20330 kPa | 0.133
336.3 K, 20300 kPa | 0.1267
336.32 K, 10150 kPa | 0.1229
336.34 K, 15140 kPa | 0.1245
336.39 K, 5020 kPa | 0.1205
336.42 K, 1030 kPa | 0.1194
356.27 K, 15170 kPa | 0.1205
356.27 K, 20040 kPa | 0.1218
356.36 K, 10440 kPa | 0.1184
356.41 K, 1160 kPa | 0.1131
356.43 K, 5170 kPa | 0.1166
376.88 K, 20030 kPa | 0.1185
376.95 K, 5200 kPa | 0.1108
376.95 K, 10160 kPa | 0.1124
376.95 K, 15270 kPa | 0.1147
377.07 K, 1080 kPa | 0.1096
395.96 K, 15140 kPa | 0.1121
396.23 K, 10180 kPa | 0.1091
396.26 K, 20010 kPa | 0.1141
396.28 K, 5150 kPa | 0.1072
396.32 K, 1030 kPa | 0.1059
416.29 K, 20250 kPa | 0.1104
416.33 K, 15150 kPa | 0.1066
416.68 K, 5290 kPa | 0.1033
416.72 K, 10280 kPa | 0.1054
416.75 K, 1040 kPa | 0.1013
436.23 K, 20100 kPa | 0.1051
436.34 K, 15130 kPa | 0.1036
436.37 K, 1020 kPa | 0.0972
436.48 K, 10230 kPa | 0.1026
436.52 K, 5170 kPa | 0.0992
456.02 K, 20030 kPa | 0.1029
456.04 K, 5400 kPa | 0.0956
456.22 K, 15290 kPa | 0.1003
456.24 K, 10330 kPa | 0.099
456.26 K, 1140 kPa | 0.0928
476.35 K, 10170 kPa | 0.0941
476.38 K, 20260 kPa | 0.0994
476.61 K, 1110 kPa | 0.0901
476.73 K, 5010 kPa | 0.0914
476.75 K, 15330 kPa | 0.0965
496.03 K, 20300 kPa | 0.0962
496.15 K, 2850 kPa | 0.0875
496.27 K, 15290 kPa | 0.0945
496.31 K, 10420 kPa | 0.0928
496.49 K, 5210 kPa | 0.087
516.06 K, 20190 kPa | 0.094
516.2 K, 15360 kPa | 0.0916
516.21 K, 10220 kPa | 0.0906
516.4 K, 5090 kPa | 0.0862
536.3 K, 10150 kPa | 0.0873
536.39 K, 15400 kPa | 0.0897
536.56 K, 20330 kPa | 0.0921
556.53 K, 15430 kPa | 0.0908
556.59 K, 20100 kPa | 0.0927
556.68 K, 10050 kPa | 0.0869
576.72 K, 20150 kPa | 0.0885

Source: the NIST ThermoML archive (doi:10.1007/s10765-019-2537-x)
